Patent publication US11672766B2, “Therapeutic cationic peptides and unimolecular nanoparticles for efficient delivery thereof” (Wisconsin Alumni Research Foundation, priority 2017, dated 2023)
Where no end group is shown, it is not given here. [ ]: non-standard residue; d: D form. Arg(Me2a) = CN(C)C(=N)NCCC[C@H](N)C(=O)O

Columns and labels:
[1] = molecular target: T1, CARM1-mediated methylation of PKM2 (Homo sapiens, UniProt Q86X55); assay: In vitro methylation assay of PKM2 by CARM1 (3H-SAM, autoradiography); type: biochemical; details: for PKM2 methylation by CARM1: FBP 100 μM or TEPP-46 1 μM; for CARM1-mediated methylation of PKM2: free peptide or peptide encapsulated in UMNP
T1 construct: HaloTag (cleaved yes); made in house; host or cells: CARM1: HEK293T (transient)
T1 sequence (Q86X55 1-608): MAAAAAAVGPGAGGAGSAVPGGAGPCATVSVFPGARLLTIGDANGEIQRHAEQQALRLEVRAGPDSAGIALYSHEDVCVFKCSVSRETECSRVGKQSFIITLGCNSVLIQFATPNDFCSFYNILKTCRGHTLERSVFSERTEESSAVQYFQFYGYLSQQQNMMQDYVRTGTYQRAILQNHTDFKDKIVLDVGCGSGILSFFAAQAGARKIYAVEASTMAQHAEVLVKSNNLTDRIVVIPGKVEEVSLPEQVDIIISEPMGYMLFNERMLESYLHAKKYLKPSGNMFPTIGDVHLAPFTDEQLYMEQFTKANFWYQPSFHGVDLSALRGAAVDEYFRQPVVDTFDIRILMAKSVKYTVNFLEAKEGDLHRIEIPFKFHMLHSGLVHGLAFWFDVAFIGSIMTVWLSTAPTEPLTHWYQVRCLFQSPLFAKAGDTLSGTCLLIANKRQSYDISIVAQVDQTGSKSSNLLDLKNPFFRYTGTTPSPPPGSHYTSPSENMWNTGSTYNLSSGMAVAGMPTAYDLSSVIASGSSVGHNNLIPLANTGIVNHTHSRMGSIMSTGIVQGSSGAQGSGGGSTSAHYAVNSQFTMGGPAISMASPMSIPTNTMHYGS
Description: (§1) In vitro methylation assay was performed as previously described (Wang et al., 2014). Purified histones or purified substrate proteins were mixed with the protein arginine methyltransferases (PRMTs) in the presence of ^3H-SAM. [^3H]-labeled substrates were resolved by SDS-PAGE and detected by autoradiography.
Human PRMT1-8 cDNAs were cloned into pFN21K HaloTag CMV Flexi Vector (Promega) (Wang et al., 2014). These plasmids were transiently transfected into HEK293T cells for 36 hours. The cells were harvested in binding buffer (HEPES 50 mM, NaCl 150 mM, NP40 0.005%, 0.5 mM EDTA, pH 7.5) and sonicated at 35% power (amplitude) with 10 s on, 30 s off, 4-6 cycles on ice, and then centrifuged and collected the supernatant. The supernatant was incubated with HaloLink resin (Promega) overnight at 4° C. The beads were washed with binding buffer twice and then incubated with 1M urea in binding buffer for 20 min at room temperature. After washing the beads with binding buffer twice, the proteins were eluted with 20 μg/mL TEV in cleavage buffer (DTT 1 mM in binding buffer). For purification of Flag-tagged proteins, the plasmids were transiently transfected into HEK293T cells for 36 hours. The cells were harvested in lysis buffer on ice for 30 min, and then centrifuged and collected the supernatant. Flag M2 Affinity Gel was added into the supernatant and incubated for 2 hours, and then the Gel was washed with PBS four times. The proteins were eluted by 150 μg/mL 3× Flag peptide in 0.5 M Tris HCl and 1M NaCl pH 7.5. For His-tagged or GST-tagged proteins purification, PKM1 and PKM2 cDNA were inserted pET-21a (+) or pGEX-2T plasmid. The plasmids were then transfected into E. coli BL-21 competent cells. Protein expression was induced by the presence of 0.5 mM IPTG overnight at 20° C. After centrifugation, pellet was resuspended in sonication buffer (1% Triton X-100, 1 mM EDTA, 1 mM DTT in PBS) and sonicated at 50% power (amplitude) with 30 s on, 30 s off, 10 cycles on ice or until the suspension became clear. After centrifugation, the supernatant was incubated with Ni-NTA Agarose or Glutathione Agarose Resin for 2 hours at room temperature. For His-tagged proteins, Beads were washed with PBS twice, then washed with 10 mM imidazole in elution buffer (1% Triton X-100, 0.1% glycerol in PBS) once. The His-tagged proteins were eluted with 250 mM imidazole. For GST-tagged proteins, beads were washed with PBS four times and eluted with glutathione elution buffer (50 mM Glutathione, 50 mM Tris HCl, pH 8.0, 100 mM NaCl, and 1 mM EDTA). The eluted proteins were dialyzed with PBS containing 0.1% glycerol.

[2] = molecular target: T2, histone H3 methylation by CARM1 (Homo sapiens, UniProt Q86X55); assay: In vitro methylation assay of control substrate histone H3 by CARM1; type: biochemical; details: FBP 100 μM or TEPP-46 1 μM
T2 construct: HaloTag (cleaved yes); made in house; host or cells: HEK293T (transient transfection)
T2 sequence (Q86X55 1-608): T1 sequence (Q86X55 1-608)
Description: as §1

MCF7 cells [3] = assay: Oxygen consumption rate (OCR), Seahorse XF96; type: cell-based; details: TEPP-46 vs DMSO, DCA treated
Description: (§2) The OCR was measured in an XF96 extracellular analyzer (Seahorse Bioscience). 2×10^4 cells per well were seeded into the 96-well plate and incubated in DMEM media with 10% FBS at 37° C. overnight. Next day, the media was changed to analysis media containing 10 mM glucose. The cells were incubated in a CO2-free incubator at 37° C. for 1 hour. Cells were sequentially exposed to oligomycin ([…] FCCP (0.5 μM) and rotenone (0.5 μM). Each point in traces represent the average of measurement from six different wells.

MDA-MB-231 cells [4] = assay: Oxygen consumption rate (OCR), Seahorse XF96; type: cell-based, human; details: TEPP-46 vs DMSO, DCA treated
Description: as §2

MCF7 cells [5] = assay: Lactate production normalized to cell numbers; type: cell-based; details: TEPP-46 vs DMSO, DCA treated
MDA-MB-231 cells [6] = assay: Lactate production normalized to cell numbers; type: cell-based, human; details: TEPP-46 vs DMSO, DCA treated
methyl-PKM2 = assay: Western blot analysis of methyl-PKM2 in MCF7 cells; type: cell-based; details: TEPP-46 vs DMSO
Description: Methyl-PKM2 specific anti-peptide antibody was prepared by Genemed Synthesis Inc., TX, using standard methods of peptide synthesis. The KLH-conjugated PKM2 peptide RYR(as)PR(as)[…] (SEQ ID NO: 58), with R445 and R447 asymmetrically dimethylated was synthesized. The peptide corresponding to human PKM2 amino acids 443-454, was used to immunize rabbits. To purify the di-me-PKM2 specific antibody, 10 mg dimethyl peptide (column A) and 10 mg control peptide (non-methyl) (column B) were coupled separately to cyanogen bromide activated agarose beads. 100 ml of antisera was then incubated with the peptide-agarose column A. The unbound antiserum was washed with 1×PBS buffer. After several washes, the antibody was eluted with 0.1 M glycine, pH 2.5; neutralized with 1M […] Tris, pH 8.0. The antibody was stabilized with 0.1% BSA [Elution A]. Elution A was then incubated with column B and then same procedure was followed for elution. The flow through from column B was the dimethyl-specific antibody (methyl-PKM2). The antisera and purified antibody were then tested by enzyme-linked immunosorbent assay (ELISA).

IP3R3 = assay: Western blot analysis of IP3R3 protein levels in MCF7 cells; type: cell-based; details: parental MCF7, TEPP-46 vs DMSO
[7] = system: MCF7 cells (parental, PKM2 KO, PKM2wt/shPKM1, PKM2mut/shPKM1); assay: Cell death by PI staining after IP3Rs inhibition; type: cell-based; details: MCF7 lines, 3.5 μM XeB, 24 hours
Description: (§3) Cell apoptosis and death assays were based on the previously described method. See Cardenas, C., et al., “Selective Vulnerability of Cancer Cells by Inhibition of Ca(2+) Transfer from Endoplasmic Reticulum to Mitochondria,” Cell Rep 14, 2313-2324 (2016). Briefly, cell apoptosis was determined by annexin V/APC and propidium iodide (PI) staining. Cell death was determined by PI staining using flow cytometry.

[8] = system: MDA-MB-231 cells (parental, PKM2 KO, PKM2wt/shPKM1, PKM2mut/shPKM1); assay: Cell death by PI staining after IP3Rs inhibition; type: cell-based, human; details: MDA-MB-231 lines, 5 μM XeB, 24 hours
Description: as §3

[9] = system: MCF7 PKM2mut/shPKM1, MDA-MB-231 PKM2mut/shPKM1, MCF7 CARM1 KO cells; assay: MTT cell growth in ROS highly producing cells; type: cell-based; details: PKM2 KO, PKM2 KO expressing PKM2mut and CARM1 KO cells
Description: (§4) For quantitative proliferation assays, 1000 cells per well were seeded onto 96-well plates. 3-(4,5-dimethylthiazol-2-yl)-2,5-diphenyltetrazolium bromide (MTT) solution (20 μL per well, 4 mg/mL) was added into the wells and incubated 4 hours. After discarding the supernatant, 200 μL DMSO was added and the absorbance value (optical density) was measured at 490 nm on a Victor X5 microplate reader (Perkin Elmer, Waltham, Mass.). In the next 3 days, the absorbance value was measured every day. For 5-Ethynyl-2′-deoxyuridine (EdU) incorporation assay, 3×10^5 cells were seeded into 6-well plate and incubated 10 μM EdU for 1 hour, followed by the procedures described in the Click-iT® EdU cytometry assay kit according to the manufacturer's instructions. Cells were then analyzed on BD LSRII. For clonogenicity assay, 1000 viable transfected cells were placed in six-well plates and maintained in complete medium for 2 weeks. Colonies were washed with PBS and fixed with 3.7% formaldehyde for 15 min at room temperature, and then stained for 20 min with 0.05% crystal violet.

[10] = system: MDA-MB-231 PKM2mut/shPKM1 cells; assay: Cell migration of ROS highly producing cells; type: cell-based, human
Description: (§5) Cell migration assay was performed as previously described (Wang et al., 2014) using 8.0 μm pore size Transwell inserts (Costar Corp., Cambridge, Mass.). Briefly, 1×10^5 cells in 100 μL serum free media were added into the upper chamber, 500 μL culture media with 20% FBS was in the lower well. After 12 hours culture, removed the cells on the upper surface of the membrane and fixed the migrant cells attached to the lower surface with 3.7% formaldehyde in culture media at 37° C. for 15 min, and then stained for 20 min with 0.05% crystal violet.

MCF7 cells [11] = assay: MTT cell proliferation assay; type: cell-based; details: peptides delivered by UMNP (FIG. 14E)
Description: as §4

MDA-MB-231 cells [12] = assay: Transwell cell migration assay; type: cell-based, human; details: peptides delivered by UMNP (FIG. 14F)
Description: as §5

PKM2 methylation by CARM1 [1]	Compound	histone H3 methylation by CARM1 [2]	CARM1-mediated methylation of PKM2 [1]	proliferation of MCF7 cells (MTT) (MCF7 cells [11])	migration of MDA-MB-231 cells (transwell) (MDA-MB-231 cells [12])	further results
blockage of PKM2 methylation by CARM1	O=P(O)(O)OC[C@H]1O[C@](O)(COP(=O)(O)O)[C@@H](O)[C@@H]1O [FBP]	neither TEPP-46 nor FBP treatment affected histone H3 methylation by CARM1	–	–	–	–
blockage of PKM2 methylation by CARM1	Cn1c2cc([S+](C)[O-])sc2c2cnn(Cc3cccc(N)c3)c(=O)c21 (centres unmarked) [TEPP-46]	neither TEPP-46 nor FBP treatment affected histone H3 methylation by CARM1	–	–	–	OCR (MCF7 cells [3]): significantly increased OCR; OCR (MDA-MB-231 cells [4]): significantly increased OCR; lactate production (MCF7 cells [5]): decreasing lactate production; lactate production (MDA-MB-231 cells [6]): decreasing lactate production; methyl-PKM2 level in cells (methyl-PKM2): blocking its methylation; IP3R3 expression (IP3R3): elevated IP3R3 expression
–	C[C@@H]1CN2CCC[C@H]3CCCCCC[C@H]4CCN5CCC[C@@](O)(CCCCCC[C@@H]1O[C@H]32)[C@H]5O4 [XeB, Xestospongin B]	–	–	–	–	cell death (vulnerability to IP3Rs inhibition) [7]: PKM2 KO or PKM2^mut cells are more vulnerable to XeB than parental and PKM2^wt cells; cell death (vulnerability to IP3Rs inhibition) [8]: PKM2 KO or PKM2^mut cells are more vulnerable to XeB than parental and PKM2^wt cells
–	CC1(C)CC(NC(=O)C[P+](c2ccccc2)(c2ccccc2)c2ccccc2)CC(C)(C)N1[O] [mitTEMPO]	–	–	–	–	cell proliferation [9]: did not alter cell proliferation and migration; cell migration [10]: did not alter cell proliferation and migration
–	RYRPRAPIIAVT [non-methyl-peptide]	–	abrogated CARM1-mediated methylation of PKM2	inhibited proliferation of the MCF7 cells	inhibited proliferation of the MCF7 cells (FIG. 14E) and migration of MDA-MB-231 cells	–
–	methyl-peptide: negative control: corresponding peptide with R445 and R447 asymmetrically di-methylated (RY[Arg(Me2a)]P[Arg(Me2a)]APIIAVT; also: R445 and R447 asymmetrically di-methylated)	–	but not the control methyl-peptide, abrogated CARM1-mediated methylation of PKM2	but not methyl-peptide, inhibited proliferation of the MCF7 cells	but not methyl-peptide, inhibited proliferation of the MCF7 cells (FIG. 14E) and migration of MDA-MB-231 cells	–
